Publication PMC10755736, “Modulating Liquid–Liquid Phase Separation of Nck Adaptor Protein against Enteropathogenic Escherichia coli Infection” (ACS Central Science, 2023)
Non-standard residues stand in square brackets, D forms with d. Residues, ends and D or L forms follow the SMILES beside them. *: point of attachment. Biotin = O=C1N[C@H]2[C@H](CS[C@H]2CCCCC(=O)*)N1; Benzoyl(4-SO2F) = O=C(c1ccc(S(=O)(=O)F)cc1)*; pY = N[C@@H](Cc1ccc(OP(=O)(O)O)cc1)C(=O)O; Dap = NC[C@H](N)C(=O)O

Tested on: Nck-SH2
Assay: Competitive pull-down of Nck with biotinylated Y474
Format: binding
Details: with or without p1
Protocol: In addition, we performed the reaction between p1 and Nck in a cell lysate, representing a complex solution. We incubated peptide p1 with the lysate of Caco-2 cells overexpressing Nck, and the reaction mixture was resolved on SDS-PAGE and analyzed with Western blotting against an anti-Nck antibody. […] Next, we incubated biotinylated peptide Y474 and Nck solutions with or without p1 peptide, and pulled down proteins that bound with biotinylated Y474.

CC[C@H](C)[C@H](NC(=O)[C@H](Cc1c[nH]cn1)NC(=O)[C@H](CCC(=O)O)NC(=O)[C@H](CCC(=O)O)NC(=O)CCCC[C@@H]1SC[C@@H]2NC(=O)N[C@@H]21)C(=O)N[C@@H](Cc1ccc(OP(=O)(O)O)cc1)C(=O)N[C@@H](CNC(=O)c1ccc(S(=O)(=O)F)cc1)C(=O)N[C@@H](CCC(=O)O)C(=O)N[C@H](C(=O)N[C@@H](C)C(=O)N[C@@H](C)C(=O)N[C@@H](CC(=O)O)C(N)=O)C(C)C [p1] (Biotin-EEHI[pY][Dap](Benzoyl(4-SO2F))EVAAD-NH2; N-terminus and C-terminus assumed)
binding of Nck to biotinylated Y474 in pull-down: the Nck protein did not bind with Y474
